This is an account of results in patent US8993756B2 (Merck Sharp & Dohme Corp., priority 2011, dated 2015).

The target of one assay is JAK3 (Homo sapiens (Human), UniProt P52333). In words: Jak Biochemical HTRF Assay (JAK3). Particulars: recombinant GST-tagged catalytic domain, [ATP] 2.9 μM. For orientation: Time-resolved FRET reads energy transfer from a long-lived donor to a nearby acceptor.
A further assay addresses JAK2 (Homo sapiens (Human), UniProt O60674). The assay can be described thus: Jak Biochemical HTRF Assay (JAK2). Particulars: recombinant GST-tagged catalytic domain, [ATP] 8.5 μM.

JAK2, sequence (O60674 849-1124): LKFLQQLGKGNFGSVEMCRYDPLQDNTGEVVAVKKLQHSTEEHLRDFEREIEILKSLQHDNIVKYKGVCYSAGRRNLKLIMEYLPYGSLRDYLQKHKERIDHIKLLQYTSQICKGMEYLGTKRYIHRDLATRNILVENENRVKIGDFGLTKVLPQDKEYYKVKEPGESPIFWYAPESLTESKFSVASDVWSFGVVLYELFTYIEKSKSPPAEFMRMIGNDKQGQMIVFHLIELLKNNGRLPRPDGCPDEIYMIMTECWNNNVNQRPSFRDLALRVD
JAK3, sequence (P52333 822-1111): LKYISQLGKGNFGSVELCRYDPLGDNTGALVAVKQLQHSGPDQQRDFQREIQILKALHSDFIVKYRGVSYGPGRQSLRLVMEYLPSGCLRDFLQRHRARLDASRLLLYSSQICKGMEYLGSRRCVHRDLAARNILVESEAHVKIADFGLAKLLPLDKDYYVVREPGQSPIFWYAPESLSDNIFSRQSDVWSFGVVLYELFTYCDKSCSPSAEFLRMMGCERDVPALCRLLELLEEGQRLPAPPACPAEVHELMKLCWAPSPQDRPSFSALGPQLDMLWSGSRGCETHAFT

As usually defined, the IC50 is the point on the concentration scale where inhibition reaches its midpoint. For `C=C(CC)C(=O)Nc1cccc(-c2ncnc3[nH]cc(C(=O)OCC)c23)c1` [Example 4-8, ethyl 4-{3-[(2-methylidenebutanoyl)amino]phenyl}-7H-pyrrolo[2,3-d]pyrimidine-5-carboxylate], the IC50 is 0.61 nM at JAK3 and above 1500 nM on JAK2.
In the case of `C=C(C)C(=O)Nc1cc(-c2ncnc3[nH]cc(C(=O)OCC)c23)ccc1Cl` [Example 4-9, ethyl 4-{4-chloro-3-[(2-methylacryloyl)amino]phenyl}-7H-pyrrolo[2,3-d]pyrimidine-5-carboxylate], the IC50 was 0.013 nM on JAK3 and above 1500 nM at JAK2.
The like results for `C=C(C)C(=O)Nc1cc(-c2ncnc3[nH]cc(C(=O)OCC)c23)ccc1C` [Example 4-10] were, in that order, 0.15 nM and above 1500 nM.
For `C=CC(=O)Nc1cc(-c2ncnc3[nH]cc(C(=O)OCC)c23)ccc1C` [Example 4-11, ethyl 4-[3-(acryloylamino)-4-methylphenyl]-7H-pyrrolo[2,3-d]pyrimidine-5-carboxylate], in that order: 0.033 nM and above 1500 nM.
For `C=CC(=O)Nc1cccc(-c2ncnc3[nH]cc(C(=O)OCC)c23)c1C` [Example 4-12, ethyl 4-[3-(acryloylamino)-2-methylphenyl]-7H-pyrrolo[2,3-d]pyrimidine-5-carboxylate], in that order: 0.19 nM and above 1500 nM.
Regarding `C=C(C)C(=O)Nc1cccc(-c2ncnc3[nH]cc(C(=O)OCC)c23)c1C` [Example 4-13, ethyl 4-{2-methyl-3-[(2-methylacryloyl)amino]phenyl}-7H-pyrrolo[2,3-d]pyrimidine-5-carboxylate], the figures for the IC50 at JAK3 (given as range class) and on JAK2 (given as range class) were 10 to 500 nM and above 500 nM, respectively.
As to `C=CC(=O)Nc1cc(-c2ncnc3[nH]cc(C(=O)OCC)c23)ccc1Cl` [Example 4-14, ethyl 4-[3-(acryloylamino)-4-chlorophenyl]-7H-pyrrolo[2,3-d]pyrimidine-5-carboxylate], the concentration for half-maximal inhibition (IC50) is 0.066 nM on JAK3 and above 1500 nM on JAK2.
The like results for `C=CC(=O)Nc1cc(-c2ncnc3[nH]cc(C(=O)OCC)c23)ccc1OC` [Example 4-15, ethyl 4-[3-(acryloylamino)-4-methoxyphenyl]-7H-pyrrolo[2,3-d]pyrimidine-5-carboxylate] were, in that order, 0.11 nM and above 1500 nM.
Turning to `C=C(C)C(=O)Nc1cc(-c2ncnc3[nH]cc(C(=O)OCC)c23)ccc1F` [Example 4-16, ethyl 4-{4-fluoro-3-[(2-methylacryloyl)amino]phenyl}-7H-pyrrolo[2,3-d]pyrimidine-5-carboxylate], the concentration for half-maximal inhibition (IC50) is 0.07 nM at JAK3 and above 1500 nM on JAK2.
The like results for `C=C(C)C(=O)Nc1cc(-c2ncnc3[nH]cc(C(=O)OCC)c23)ccc1OC` [Example 4-17, ethyl 4-{4-methoxy-3-[(2-methylacryloyl)amino]phenyl}-7H-pyrrolo[2,3-d]pyrimidine-5-carboxylate] were, in that order, 0.11 nM and above 1500 nM.
Regarding `C=C(C)C(=O)Nc1ccc(F)c(-c2ncnc3[nH]cc(C(=O)OCC)c23)c1` [Example 4-18, ethyl 4-{2-fluoro-5-[(2-methylacryloyl)amino]phenyl}-7H-pyrrolo[2,3-d]pyrimidine-5-carboxylate], the IC50 on JAK3 was 0.11 nM; at JAK2, above 1500 nM.
For `C=C(C)C(=O)Nc1cc(F)cc(-c2ncnc3[nH]cc(C(=O)OCC)c23)c1` [Example 4-19, ethyl 4-{3-fluoro-5-[(2-methylacryloyl)amino]phenyl}-7H-pyrrolo[2,3-d]pyrimidine-5-carboxylate], in that order: 0.05 nM and above 1500 nM.
The like results for `C=CC(=O)N1CCc2ccc(-c3ncnc4[nH]cc(C(=O)OCC)c34)cc21` [Example 4-20, ethyl 4-(1-acryloyl-2,3-dihydro-1H-indol-6-yl)-7H-pyrrolo[2,3-d]pyrimidine-5-carboxylate] were, in that order, 0.081 nM and above 1500 nM.
The like results for `C=C(C)C(=O)N1CCc2ccc(-c3ncnc4[nH]cc(C(=O)OCC)c34)cc21` [Example 4-21, ethyl 4-[1-(2-methylacryloyl)-2,3-dihydro-1H-indol-6-yl]-7H-pyrrolo[2,3-d]pyrimidine-5-carboxylate] were, in that order, 2.3 nM and above 1500 nM.
For the compound `C=C(C)C(=O)Nc1ccc(C#N)c(-c2ncnc3[nH]cc(C(=O)OCC)c23)c1` [Example 4-22, ethyl 4-{2-cyano-5-[(2-methylacryloyl)amino]phenyl}-7H-pyrrolo[2,3-d]pyrimidine-5-carboxylate], the IC50 at JAK3 (given as range class) is 10 to 500 nM; on JAK2 (given as range class) it was above 500 nM.
For `C=C(C)C(=O)n1ccc2ccc(-c3ncnc4[nH]cc(C(=O)OCC)c34)cc21` [Example 4-23, ethyl 4-[1-(2-methylacryloyl)-1H-indol-6-yl]-7H-pyrrolo[2,3-d]pyrimidine-5-carboxylate], the IC50 on JAK3 is 0.34 nM; at JAK2 it was above 1500 nM.
The like results for `C=C(C)C(=O)Nc1cc(C#N)cc(-c2ncnc3[nH]cc(C(=O)OCC)c23)c1` [Example 4-24, ethyl 4-{3-cyano-5-[(2-methylacryloyl)amino]phenyl}-7H-pyrrolo[2,3-d]pyrimidine-5-carboxylate] were, in that order, 0.068 nM and above 1500 nM.
For `C=C(C)C(=O)Nc1cc(-c2ncnc3[nH]cc(C(=O)OCC)c23)ccc1CO` [Example 4-25, ethyl 4-{4-(hydroxymethyl)-3-[(2-methylacryloyl)amino]phenyl}-7H-pyrrolo[2,3-d]pyrimidine-5-carboxylate], in that order: 0.11 nM and above 1500 nM.
As to `C=C(C)C(=O)Nc1cc(C)cc(-c2ncnc3[nH]cc(C(=O)OCC)c23)c1` [Example 4-26, ethyl 4-{3-methyl-5-[(2-methylacryloyl)amino]phenyl}-7H-pyrrolo[2,3-d]pyrimidine-5-carboxylate], the 50% inhibitory concentration (IC50) at JAK3 was 0.19 nM; at JAK2, above 1500 nM.
The like results for `C=C(C)C(=O)Nc1cc(-c2ncnc3[nH]cc(C(=O)OCC)c23)ccc1C#N` [Example 4-27, ethyl 4-{4-cyano-3-[(2-methylacryloyl)amino]phenyl}-7H-pyrrolo[2,3-d]pyrimidine-5-carboxylate] were, in that order, 0.14 nM and above 1500 nM.
The like results for `C=C(C)C(=O)Nc1cc(-c2ncnc3[nH]cc(C(=O)OCC)c23)ccc1C(=O)N(C)C` [Example 4-28, ethyl 4-{4-(dimethylcarbamoyl)-3-[(2-methylacryloyl)amino]phenyl}-7H-pyrrolo[2,3-d]pyrimidine-5-carboxylate] were, in that order, 1.5 nM and above 1500 nM.
Regarding `C=C(C)C(=O)Nc1cc(-c2ncnc3[nH]cc(C(=O)OCC)c23)ccc1S(C)(=O)=O` [Example 4-29, ethyl 4-{3-[(2-methylacryloyl)amino]-4-(methylsulfonyl)phenyl}-7H-pyrrolo[2,3-d]pyrimidine-5-carboxylate], the figures for the IC50 at JAK3 and on JAK2 were 0.087 nM and above 1500 nM, respectively.
The like results for `C=C(C)C(=O)Nc1cc(-c2ncnc3[nH]cc(C(=O)OCC)c23)ccc1CN(C)C` [Example 4-30, ethyl 4-{4-[(dimethylamino)methyl]-3-[(2-methylacryloyl)amino]phenyl}-7H-pyrrolo[2,3-d]pyrimidine-5-carboxylate] were, in that order, 1.5 nM and above 1500 nM.
Regarding `C=C(C)C(=O)Nc1cc(-c2ncnc3[nH]cc(C(=O)OCC)c23)ccc1O` [Example 4-31, ethyl 4-{4-hydroxy-3-[(2-methylacryloyl)amino]phenyl}-7H-pyrrolo[2,3-d]pyrimidine-5-carboxylate], the half-inhibitory concentration (IC50) at JAK3 is 0.11 nM; at JAK2, above 1500 nM.
On to `C=C(C)C(=O)Nc1cc(-c2ncnc3[nH]cc(C(=O)OCC)c23)cnc1OC` [Example 4-32, ethyl 4-{6-methoxy-5-[(2-methylacryloyl)amino]pyridin-3-yl)-7H-pyrrolo[2,3-d]pyrimidine-5-carboxylate], for which the results for the half-inhibitory concentration (IC50) at JAK3 and on JAK2 were 0.68 nM and above 1500 nM, respectively.
The like results for `C=C(C)C(=O)Nc1cc(-c2ncnc3[nH]cc(C(=O)OCC)c23)c[nH]c1=O` [Example 4-33, ethyl 4-{5-[(2-methylacryloyl)amino]-6-oxo-1,6-dihydropyridin-3-yl}-7H-pyrrolo[2,3-d]pyrimidine-5-carboxylate] were, in that order, 0.47 nM and above 1500 nM.
For `C=C(C)C(=O)Nc1cc(-c2ncnc3[nH]cc(C(=O)OCC)c23)cn(C)c1=O` [Example 4-34, ethyl 4-{1-methyl-5-[(2-methylacryloyl)amino]-6-oxo-1,6-dihydropyridin-3-yl}-7H-pyrrolo[2,3-d]pyrimidine-5-carboxylate], in that order: 1.1 nM and above 1500 nM.
For `C=C(C)C(=O)Nc1cc(-c2ncnc3[nH]cc(C(=O)OCC)c23)ccn1` [Example 4-35, ethyl 4-{2-[(2-methylacryloyl)amino]pyridin-4-yl}-7H-pyrrolo[2,3-d]pyrimidine-5-carboxylate], in that order: 0.049 nM and above 1500 nM.
As for `C=C(F)C(=O)Nc1cccc(-c2ncnc3[nH]cc(C(=O)OCC)c23)c1` [Example 5-1, Ethyl 4-{3-[(2-fluoroacryloyl)amino]phenyl}-7H-pyrrolo[2,3-d]pyrimidine-5-carboxylate], the figures for the IC50 at JAK3 and on JAK2 were 0.024 nM and above 1500 nM, respectively.
The like results for `CC#CC(=O)Nc1cccc(-c2ncnc3[nH]cc(C(=O)OCC)c23)c1` [Example 5-3, ethyl 4-[3-(but-2-ynoylamino)phenyl]-7H-pyrrolo[2,3-d]pyrimidine-5-carboxylate] were, in that order, 0.072 nM and above 1500 nM.
Take `CCOC(=O)c1c[nH]c2ncnc(-c3cccc(NC(=O)CC#N)c3)c12` [Example 5-4, ethyl 4-{3-[(cyanoacetyl)amino]phenyl}-7H-pyrrolo[2,3-d]pyrimidine-5-carboxylate]: the IC50 at JAK3 (given as range class) and at JAK2 (given as range class) was 10 to 500 nM in each case.
